What follows are compounds tested against Human complement C1s enzyme (Homo sapiens (Human), UniProt P09871) (assay: Human C1s enzyme assay). Settings: Human C1s enzyme assay of Example 3; read-out: IC50 (Stars).
Format: biochemical
Outline: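 Purified serum-derived human C1s (1.16 nM final) preincubated 5 min at room temperature with compound in 50 mM Tris, 1 M NaCl, pH 7.5. Z-L-Lys-SBzl thioester substrate and DTNB added (100 μM each, final); A405 read every 30 s for 30 min. IC50 from nonlinear regression of reaction rates against compound concentration.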

Human complement C1s enzyme, sequence (P09871 438-688 limits assumed): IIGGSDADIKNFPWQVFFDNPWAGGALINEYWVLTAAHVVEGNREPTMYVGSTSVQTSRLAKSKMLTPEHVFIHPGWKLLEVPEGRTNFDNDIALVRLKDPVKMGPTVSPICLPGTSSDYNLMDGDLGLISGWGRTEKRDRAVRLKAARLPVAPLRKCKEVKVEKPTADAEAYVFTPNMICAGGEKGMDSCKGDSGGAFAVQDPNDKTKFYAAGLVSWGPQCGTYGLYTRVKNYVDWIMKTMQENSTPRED
Human complement C1s enzyme, sequence (P09871 16-437 partner limits assumed): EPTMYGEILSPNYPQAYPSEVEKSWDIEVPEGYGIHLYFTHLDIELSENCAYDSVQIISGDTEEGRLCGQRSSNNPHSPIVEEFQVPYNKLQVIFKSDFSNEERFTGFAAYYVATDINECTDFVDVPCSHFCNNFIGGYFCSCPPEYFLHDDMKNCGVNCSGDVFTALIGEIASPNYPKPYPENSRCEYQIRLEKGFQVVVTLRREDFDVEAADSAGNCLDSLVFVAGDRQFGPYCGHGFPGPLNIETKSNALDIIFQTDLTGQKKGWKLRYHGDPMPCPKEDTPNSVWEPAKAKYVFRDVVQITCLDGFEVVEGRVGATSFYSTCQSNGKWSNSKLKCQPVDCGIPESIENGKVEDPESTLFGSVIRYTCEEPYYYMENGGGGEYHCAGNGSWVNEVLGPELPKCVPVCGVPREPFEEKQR

Row | Compound | IC50 [nM]
1 | C[C@@H](NC(=O)[C@@H]1C[C@](F)(COCCNC(=O)CC[C@H](NC(=O)CCCCCCCCCCCCCCCCC(=O)O)C(=O)O)CN1C(=O)CNC(=O)c1ccc(Oc2ccc(F)cc2)cc1)c1cc(C(=N)N)cs1 [Compound 106, 18-(((S)-4-((2-(((3R,5S)-5-(((R)-1-(4-carbamimidoylthiophen-2-yl)ethyl)carbamoyl)-3-fluoro-1-((4-(4-fluorophenoxy)benzoyl)glycyl)pyrrolidin-3-yl)methoxy)ethyl)amino)-1-carboxy-4-oxobutyl)amino)-18-oxooctadecanoic acid] | < 100
2 | C[C@@H](NC(=O)[C@@H]1C[C@@H](Oc2ccccc2)CN1C(=O)CNC(=O)c1ccc(Oc2ccc(F)cc2)cc1)c1cc(C(=N)N)cs1 [Compound 37, (2S,4R)—N—((R)-1-(4-carbamimidoylthiophen-2-yl)ethyl)-1-((4-(4-fluorophenoxy)benzoyl)glycyl)-4-phenoxypyrrolidine-2-carboxamide] | < 100

The remaining lines, values ahead:

Row | IC50 [nM] | Compound
3 | < 100 | N=C(N)c1csc(CNC(=O)[C@@H]2CC3(CN2C(=O)CNC(=O)c2ccc4c(c2)-c2ccccc2C4=O)OCCO3)c1 [Compound 88, (S)—N-((4-carbamimidoylthiophen-2-yl)methyl)-7-((9-oxo-9H-fluorene-3-carbonyl)glycyl)-1,4-dioxa-7-azaspiro[4.4]nonane-8-carboxamide]
4 | < 100 | COC[C@@H]1C[C@@H](C(=O)N[C@H](C)c2cc(C(=N)N)cs2)N(C(=O)CNC(=O)c2ccc3c(c2)-c2ccccc2C3(F)F)C1 (relative stereo) [Compound 118, (2S,4R*)—N—((R)-1-(4-carbamimidoylthiophen-2-yl)ethyl)-1-((9,9-difluoro-9H-fluorene-3-carbonyl)glycyl)-4-(methoxymethyl)pyrrolidine-2-carboxamide]

Same assay, conditions: Human complement C1s enzyme 1.16 nM, substrate Z-L-Lys-SBzl 100 μM, assay of Example 3; read-out: IC50 (Stars)

Row | IC50 [nM] | Compound
5 | < 100 | C[C@@H](NC(=O)[C@@H]1C[C@]2(CN3CCOCC3)C[C@@H]2N1C(=O)CNC(=O)c1ccc2c(c1)-c1ccccc1C2(F)F)c1cc(C(=N)N)cs1 [Compound 267, (1S,3S,5S)—N—((R)-1-(4-carbamimidoylthiophen-2-yl)ethyl)-2-((9,9-difluoro-9H-fluorene-3-carbonyl)glycyl)-5-(morpholinomethyl)-2-azabicyclo [3.1.0]hexane-3-carboxamide]
6 | < 100 | N=C(N)c1csc(CNC(=O)[C@@H]2CC3(CN2C(=O)CNC(=O)c2ccc(-c4ccc(F)c(C(=O)O)c4)cc2)OCCO3)c1 [Compound 212, (S)-4′-((2-(8-(((4-carbamimidoylthiophen-2-yl)methyl)carbamoyl)-1,4-dioxa-7-azaspiro[4.4]nonan-7-yl)-2-oxoethyl)carbamoyl)-4-fluoro-[1,1′-biphenyl]-3-carboxylic acid]
7 | < 100 | Cc1cc(-c2ccc(C(=O)NCC(=O)N3CC4(C[C@H]3C(=O)NCc3cc(C(=N)N)cs3)OCCO4)cc2)ccc1F [Compound 199, (S)—N-((4-carbamimidoylthiophen-2-yl)methyl)-7-((4′-fluoro-3′-methyl-[1,1′-biphenyl]-4-carbonyl)glycyl)-1,4-dioxa-7-azaspiro[4.4]nonane-8-carboxamide]

Same assay, conditions: Human complement C1s enzyme 1.16 nM, substrate Z-L-Lys-SBzl; assay of Example 3; read-out: IC50 (Stars)

Row | IC50 [nM] | Compound
8 | < 100 | CC1(C)c2ccccc2-c2cc(C(=O)NCC(=O)N3CC4(C[C@H]3C(=O)N[C@H](CO)c3cc(C(=N)N)cs3)OCCO4)ccc21 [Compound 399, (S)—N—((R)-1-(4-carbamimidoylthiophen-2-yl)-2-hydroxyethyl)-7-((9,9-dimethyl-9H-fluorene-3-carbonyl)glycyl)-1,4-dioxa-7-azaspiro[4.4]nonane-8-carboxamide]
9 | < 100 | CC1(C)c2ccccc2-c2cc(C(=O)NCC(=O)N3C[C@H](OC(F)F)C[C@H]3C(=O)N[C@H](CO)c3cc(C(=N)N)cs3)ccc21 [Compound 413, (2S,4R)—N—((R)-1-(4-carbamimidoylthiophen-2-yl)-2-hydroxyethyl)-4-(difluoromethoxy)-1-((9,9-dimethyl-9H-fluorene-3-carbonyl)glycyl) pyrrolidine-2-carboxamide]

Source: patent US20250346585A1 (Alexion Pharmaceuticals, Inc., priority 2022, published 2025)
